The values below come from patent US10370727B2, “Point mutations in TRK inhibitor-resistant cancer and methods relating to the same” (Loxo Oncology, Inc., priority 2015, dated 2019).

As usually defined, the IC50 is the point on the concentration scale where inhibition reaches its midpoint. Read a low IC50 as inhibition by little substance.

What all share (test): Trk enzyme assay ([33P] incorporation into poly-EAY)
Type in all cases: biochemical

One experiment concerns the target TrkA G667S (Homo sapiens, UniProt P04629, G667S). The following applies: mutant TrkA G667S enzyme; 22° C., 60 minutes.
The target of another experiment is TrkA G595R (Homo sapiens, UniProt P04629, G595R). To be noted: mutant TrkA G595R enzyme; 22° C., 60 minutes.
TrkA G595R, sequence (P04629 33-796 G595R): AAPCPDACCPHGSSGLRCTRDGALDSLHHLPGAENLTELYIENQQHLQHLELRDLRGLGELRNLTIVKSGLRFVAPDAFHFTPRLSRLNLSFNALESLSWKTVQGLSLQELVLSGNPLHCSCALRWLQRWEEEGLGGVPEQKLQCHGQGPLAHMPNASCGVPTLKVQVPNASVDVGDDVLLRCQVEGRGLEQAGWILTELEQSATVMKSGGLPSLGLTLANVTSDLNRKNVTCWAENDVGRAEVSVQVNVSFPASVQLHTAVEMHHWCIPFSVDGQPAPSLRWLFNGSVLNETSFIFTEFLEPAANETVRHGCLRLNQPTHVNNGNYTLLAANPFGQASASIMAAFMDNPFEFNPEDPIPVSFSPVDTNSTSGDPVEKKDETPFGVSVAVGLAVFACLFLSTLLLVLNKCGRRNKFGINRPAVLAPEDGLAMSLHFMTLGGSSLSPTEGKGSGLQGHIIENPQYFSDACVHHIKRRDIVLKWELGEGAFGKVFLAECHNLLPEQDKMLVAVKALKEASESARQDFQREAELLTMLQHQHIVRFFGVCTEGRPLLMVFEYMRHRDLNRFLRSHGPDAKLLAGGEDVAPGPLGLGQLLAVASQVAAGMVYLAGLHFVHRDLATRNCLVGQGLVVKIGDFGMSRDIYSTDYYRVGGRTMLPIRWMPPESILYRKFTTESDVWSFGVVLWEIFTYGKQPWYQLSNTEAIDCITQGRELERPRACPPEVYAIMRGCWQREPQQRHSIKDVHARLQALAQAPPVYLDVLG
A further experiment deals with TrkB G623R (Homo sapiens, UniProt Q16620, G623R). The following applies: mutant TrkB G623R enzyme; 22° C., 60 minutes.
TrkB G623R, sequence (Q16620 32-822 G623R): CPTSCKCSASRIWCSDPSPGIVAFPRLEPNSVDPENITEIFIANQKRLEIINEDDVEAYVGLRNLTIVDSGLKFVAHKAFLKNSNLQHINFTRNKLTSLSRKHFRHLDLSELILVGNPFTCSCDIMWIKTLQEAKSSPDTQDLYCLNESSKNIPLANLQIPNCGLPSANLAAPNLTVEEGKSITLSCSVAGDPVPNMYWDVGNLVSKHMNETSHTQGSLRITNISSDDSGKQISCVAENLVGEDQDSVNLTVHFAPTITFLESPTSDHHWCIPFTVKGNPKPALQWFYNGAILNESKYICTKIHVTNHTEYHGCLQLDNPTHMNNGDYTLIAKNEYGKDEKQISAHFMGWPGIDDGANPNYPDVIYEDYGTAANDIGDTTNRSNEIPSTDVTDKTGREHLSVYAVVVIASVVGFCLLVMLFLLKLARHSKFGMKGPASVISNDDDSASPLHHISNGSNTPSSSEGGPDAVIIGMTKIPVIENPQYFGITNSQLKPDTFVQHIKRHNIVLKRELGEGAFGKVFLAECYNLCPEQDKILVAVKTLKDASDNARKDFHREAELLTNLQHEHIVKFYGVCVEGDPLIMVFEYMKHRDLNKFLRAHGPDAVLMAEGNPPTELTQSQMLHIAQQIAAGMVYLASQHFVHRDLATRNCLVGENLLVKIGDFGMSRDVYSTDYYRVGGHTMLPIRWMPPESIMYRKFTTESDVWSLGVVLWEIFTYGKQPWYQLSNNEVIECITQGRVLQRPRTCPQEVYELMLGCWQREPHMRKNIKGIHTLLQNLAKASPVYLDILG
The target of the next experiment is TrkA V573M (Homo sapiens, UniProt P04629, V573M). The following applies: mutant TrkA V573M enzyme; 22° C., 60 minutes.
TrkA V573M, sequence (P04629 33-796 V573M): as the sequence (P04629 33-796 G595R) above, with V541M, R563G counted along it
The target of a further experiment is TrkA G667C (Homo sapiens, UniProt P04629, G667C). The following applies: mutant TrkA G667C enzyme; 22° C., 60 minutes.
TrkA G667C, sequence (P04629 33-796 G667C): as the sequence (P04629 33-796 G595R) above, with R563G, G635C counted along it
The target in a further experiment is TrkC G623R (Homo sapiens, UniProt Q16288, G623R/S70N). To be noted: mutant TrkC G623R enzyme; 22° C., 60 minutes.
TrkC G623R, sequence (Q16288 32-839 S70N/G623R): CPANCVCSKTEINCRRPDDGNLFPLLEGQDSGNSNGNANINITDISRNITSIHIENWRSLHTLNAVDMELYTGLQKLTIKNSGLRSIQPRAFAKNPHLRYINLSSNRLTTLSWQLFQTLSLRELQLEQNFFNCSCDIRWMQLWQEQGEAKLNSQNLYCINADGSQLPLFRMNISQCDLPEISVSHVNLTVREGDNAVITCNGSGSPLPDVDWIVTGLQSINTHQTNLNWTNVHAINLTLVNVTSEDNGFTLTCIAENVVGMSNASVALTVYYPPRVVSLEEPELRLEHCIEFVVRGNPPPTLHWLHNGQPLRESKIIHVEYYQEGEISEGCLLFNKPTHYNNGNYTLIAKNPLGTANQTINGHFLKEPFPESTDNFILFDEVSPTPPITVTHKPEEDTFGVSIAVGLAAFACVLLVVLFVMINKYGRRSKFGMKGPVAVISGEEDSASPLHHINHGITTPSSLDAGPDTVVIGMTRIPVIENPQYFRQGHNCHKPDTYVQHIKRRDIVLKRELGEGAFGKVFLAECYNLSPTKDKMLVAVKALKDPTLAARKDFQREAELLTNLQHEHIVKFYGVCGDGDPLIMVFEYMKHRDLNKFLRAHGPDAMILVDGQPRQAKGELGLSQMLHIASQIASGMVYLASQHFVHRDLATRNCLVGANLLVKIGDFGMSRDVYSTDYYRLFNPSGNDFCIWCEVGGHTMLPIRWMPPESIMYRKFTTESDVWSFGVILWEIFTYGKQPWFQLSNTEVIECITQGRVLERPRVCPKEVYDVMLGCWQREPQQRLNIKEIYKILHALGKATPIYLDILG
The target of another experiment is TrkA F589L (Homo sapiens, UniProt P04629, F589L). To be noted: mutant TrkA F589L enzyme; 22° C., 60 minutes.
TrkA F589L, sequence (P04629 33-796 F589L): as the sequence (P04629 33-796 G595R) above, with F557L, R563G counted along it
A further experiment addresses TrkA WT (Homo sapiens, UniProt P04629). To be noted: wild-type TrkA enzyme; 22° C., 60 minutes.
In the next experiment the target is TrkC F617L (Homo sapiens, UniProt Q16288, F617L/S70N). The following applies: mutant TrkC F617L enzyme; 22° C., 60 minutes.
TrkC F617L, sequence (Q16288 32-839 S70N/F617L): as the sequence (Q16288 32-839 S70N/G623R) above, with F586L, R592G counted along it
In a further experiment the target is TrkC WT (Homo sapiens, UniProt Q16288, S70N). The following applies: wild-type TrkC enzyme; 22° C., 60 minutes.
TrkC WT, sequence (Q16288 32-839 S70N): as the sequence (Q16288 32-839 S70N/G623R) above, with R592G counted along it
For the next experiment, the target named is TrkB WT (Homo sapiens, UniProt Q16620). To be noted: wild-type TrkB enzyme; 22° C., 60 minutes.
TrkB WT, sequence (Q16620 32-822): as the sequence (Q16620 32-822 G623R) above, with R592G counted along it

The structures appear in SMILES notation.

TrkA WT, sequence (P04629 33-796): as the sequence (P04629 33-796 G595R) above, with R563G counted along it
TrkA G667S, sequence (P04629 33-796 G667S): as the sequence (P04629 33-796 G595R) above, with R563G, G635S counted along it

Turning to `O=C1NC[C@H](O)COc2ccc(F)cc2[C@H]2CC(F)(F)CN2c2ccn3ncc1c3n2` [Compound 26, (15S)-4,4,9-trifluoro-15-hydroxy-13-oxa-2,17,21,22.25-pentaazapentacyclo [17.5.2.0^2,6.0^7,12.0^22,26]hexacosa-1(25),7(12),8,10,19(26),20,23-heptaen-18-one], the IC50 against TrkA G667S is 0.5 nM; at TrkA G595R, 2.1 nM; on TrkB G623R, 1.8 nM; at TrkA V573M it was < 5 nM; against TrkA G667C, 1 nM; against TrkC G623R it was 2.6 nM. Also, the IC50 is 3.9 nM on TrkA F589L; 0.6 nM at TrkA WT; 9.6 nM at TrkC F617L; < 2.5 nM against TrkC WT; 3.3 nM at TrkB WT.

Take `O=C1NCCCOc2ccc(F)cc2[C@H]2CCCN2c2ccn3ncc1c3n2` [Compound 19, (6R)-9-fluoro-13-oxa-2,17,21,22,25-pentaazapentacyclo[17.5.2.0^2,6.0^7,12.0^22,26] hexacosa-1(25),7,9,11,19(26),20,23-heptaen-18-one]: the concentration for half-maximal inhibition (IC50) against TrkA G667S is 0.3 nM; against TrkA G595R it was 1.2 nM; against TrkB G623R it was 1 nM; on TrkA V573M, < 5 nM; at TrkA G667C, 0.9 nM; against TrkC G623R, 1.8 nM. The IC50 was 1.1 nM against TrkA F589L; 0.5 nM against TrkA WT; 5.1 nM against TrkC F617L; < 2.5 nM on TrkC WT; 4.4 nM against TrkB WT.

As for `O=C(NC1CC1)c1cnn2ccc(N3CCC[C@@H]3c3cncc(F)c3)nc12` [Compound 13, (R)-N-cyclopropyl-5-(2-(5-fluoro-pyridin-3-yl)pyrrolidin-1-yl)pyrazolo [1,5-a]pyrimidine-3-carboxamide], the concentration for half-maximal inhibition (IC50) against TrkA G667S is 4.1 nM; on TrkA G595R, 3.3 nM; against TrkB G623R, 2.7 nM; on TrkA V573M, 20.9 nM; against TrkA G667C, 32.4 nM; on TrkC G623R, 3.1 nM. Besides, the half-inhibitory concentration (IC50) at TrkA F589L is 37.2 nM; against TrkA WT it was < 0.5 nM; against TrkC F617L it was 8.7 nM; at TrkC WT, < 2.5 nM; against TrkB WT, 3.5 nM.

In the case of `CC1(O)CN(C(=O)Nc2cnn3ccc(N4CCC[C@@H]4c4cc(F)ccc4Cl)nc23)C1` [Compound 10, (R)-N-(5-(2-(2-chloro-5-fluorophenyl)pyrrolidin-1-yl)pyrazolo[1,5-a]pyrimidin-3-yl)-3-hydroxy-3-methylazetidine-1-carboxamide], the 50% inhibitory concentration (IC50) at TrkA G667S is 27 nM; on TrkA G595R, 107 nM; against TrkB G623R, 150 nM; against TrkA V573M, 105 nM; at TrkA G667C, 89.2 nM; on TrkC G623R, 101 nM. The IC50 was 103 nM at TrkA F589L; 0.9 nM at TrkA WT; 80.1 nM against TrkC F617L; < 2.5 nM on TrkC WT; 6.5 nM at TrkB WT.

In the case of `O=C1NCCCOc2cccc(n2)[C@H]2CCCN2c2ccn3ncc1c3n2` [Compound 20, (6R)-12-oxa-2,16,20,21,24,26-hexaazapentacyclo[16.5.2.^17,11.0^2,6.0^21,25]-hexacosa-1(24),7(26),8,10,18(25),19,22-heptaen-17-one], the IC50 on TrkA G667S came out at 3.2 nM; against TrkA G595R it was 2.7 nM; against TrkB G623R it was 3.1 nM; against TrkA V573M, 36.5 nM; on TrkA G667C, 13.3 nM; at TrkC G623R, 3.1 nM. Moreover, the half-inhibitory concentration (IC50) was 48.3 nM at TrkA F589L; < 0.5 nM against TrkA WT; 18.3 nM at TrkC F617L; < 2.5 nM against TrkC WT; 3.1 nM against TrkB WT.

Turning to `O=C1NCCCOc2ncc(F)cc2[C@H]2CCCN2c2ccn3ncc1c3n2` [Compound 16, (6R)-9-fluoro-13-oxa-2,11,17,21,22,25-hexaazapentacyclo[17.5.2.0^2,6.0^7,12.0^22,26]-hexacosa-1(25),7,9,11,19(26),20,23-heptaen-18-one], the IC50 on TrkA G667S is 0.4 nM; against TrkA G595R, 0.9 nM; on TrkB G623R it was 0.9 nM; against TrkA V573M, < 5 nM; against TrkA G667C it was 1.1 nM; against TrkC G623R, 1.3 nM. Moreover, the half-inhibitory concentration (IC50) against TrkA F589L was < 1 nM; at TrkA WT, < 0.5 nM; on TrkC F617L, < 5 nM; at TrkC WT, < 2.5 nM; at TrkB WT it was 2.9 nM.

Consider `CN(C)C(=O)Nc1cnn2ccc(N3CCC[C@@H]3c3cc(F)ccc3F)nc12` [Compound 8, (R)-3-(5-(2-(2,5-difluorophenyl)pyrrolidin-1-yl)pyrazolo[1,5-a]pyrimidin-3-yl)-1,1-dimethylurea], for which the IC50 at TrkA G667S amounted to 19.7 nM; on TrkA G595R, 49.6 nM; on TrkB G623R, 64.6 nM; against TrkA V573M it was 129 nM; against TrkA G667C, 84.2 nM; against TrkC G623R, 54.9 nM. The IC50 on TrkA F589L is 154 nM; against TrkA WT it was 0.9 nM; at TrkC F617L, 67.1 nM; on TrkC WT, < 2.5 nM; against TrkB WT, 5 nM.

Turning to `O=C1OCCOc2ncc(F)cc2[C@H]2CCCN2c2ccn3ncc1c3n2` [Compound 22, (6R)-9-fluoro-13,16-dioxa-2,11,20,21,24-pentaazapentacyclo[16.5.2.0^2,6.0^7,12.0^21,25]-pentacosa-1(24),7,9,11,18(25),19,22-heptaen-17-one], the IC50 was 0.9 nM against TrkA G667S; 1.5 nM at TrkA G595R; 1.3 nM against TrkB G623R; < 5 nM on TrkA V573M; 5.7 nM against TrkA G667C; 1.5 nM on TrkC G623R. The IC50 is 8.4 nM at TrkA F589L; 0.5 nM on TrkA WT; 5.4 nM at TrkC F617L; < 2.5 nM on TrkC WT; 2.9 nM at TrkB WT.

Take `CC1(C)CNC(=O)c2cnn3ccc(nc23)N2CCC[C@@H]2c2cc(F)cnc2OC1` [Compound 25, (6R)-9-fluoro-15,15-dimethyl-13-oxa-2,11,17,21,22,25-hexaazapentacyclo [17,5.2.0^2,6.0^7,12.0^22,26]hexacosa-1(25),7,9,11,19(26),20,23-heptaen-18-one]: the IC50 against TrkA G667S is 0.5 nM; against TrkA G595R, 3 nM; on TrkB G623R, 2.3 nM; against TrkA V573M it was < 5 nM; at TrkA G667C it was 1 nM; against TrkC G623R it was 4.7 nM. Moreover, the half-inhibitory concentration (IC50) on TrkA F589L was 1.1 nM; against TrkA WT, 1 nM; on TrkC F617L it was 8.1 nM; at TrkC WT, 4 nM; on TrkB WT, 8.7 nM.

Turning to `CC(=O)N1CCOc2ccc(F)cc2[C@H]2CCCN2c2ccn3ncc(c3n2)C1` [Compound 21, 1-[(6R)-9-fluoro-13-oxa-2,16,20,21,24-pentaazapentacyclo[16.5.2.0^2,6.0^7,12.0^21,25]pentacosa-1(24),7,9,11,18(25),19,22-heptaen-16-yl]ethan-1-one], the 50% inhibitory concentration (IC50) was determined as 8.4 nM at TrkA G667S; 7.3 nM at TrkA G595R; 12.4 nM at TrkB G623R; 29.1 nM against TrkA V573M; 22.2 nM against TrkA G667C; 7.8 nM on TrkC G623R. The IC50 on TrkA F589L was 66.3 nM; against TrkA WT, 0.6 nM; against TrkC F617L, 48.5 nM; against TrkC WT, < 2.5 nM; against TrkB WT, 5.6 nM.
